Test results reported in patent US20200077658A1, “Pesticidal Compounds” (BASF SE, priority 2016, published 2020).

How the values were obtained:
Format in all cases: in vivo
[1] = test system: Southern Armyworm (Spodoptera eridania), 2nd Instar Larvae; test: Action on southern armyworm (Spodoptera eridania), 2nd instar larvae, sprayed lima bean plants; details: 96 h, 2nd instar larvae on lima bean, 4 days after treatment, read-out: mortality in comparison with untreated controls
Method: The active compounds were formulated by a Tecan liquid handler in 100% cyclohexanone as a 10,000 ppm solution supplied in tubes. The 10,000 ppm solution was serially diluted in 100% cyclohexanone to make interim solutions. These served as stock solutions for which final dilutions were made by the Tecan in 50% acetone:50% water (v/v) into 10 or 20 ml glass vials. A nonionic surfactant (Kinetic®) was included in the solution at a volume of 0.01% (v/v). The vials were then inserted into an automated electrostatic sprayer equipped with an atomizing nozzle for application to plants/insects.
Lima bean plants (variety Sieva) were grown 2 plants to a pot and selected for treatment at the 1st true leaf stage. Test solutions were sprayed onto the foliage by an automated electrostatic plant sprayer equipped with an atomizing spray nozzle. The plants were dried in the sprayer fume hood and then removed from the sprayer. Each pot was placed into perforated plastic bags with a zip closure. About 10 to 11 armyworm larvae were placed into the bag and the bags zipped closed. Test plants were maintained in a growth room at about 250C and about 20-40% relative humidity for 4 days, avoiding direct exposure to fluorescent light (24 hour photoperiod) to prevent trapping of heat inside the bags. Mortality and reduced feeding were assessed 4 days after treatment, compared to untreated control plants.

[2] = test system: yellow fever mosquito (Aedes aegypti); test: whole plant or invertebrate; details: 48 h, larval mortality visually assessed after 2 days, read-out: mortality in comparison with untreated controls
Method: For evaluating control of yellow fever mosquito (Aedes aegypti) the test unit consisted of 96-well-microtiter plates containing 200 μl of tap water per well and 5-15 freshly hatched A. aegypti larvae.
The active compounds were formulated using a solution containing 75% (v/v) water and 25% (v/v) DMSO. Different concentrations of formulated compounds or mixtures were sprayed onto the insect diet at 2.5 μl, using a custom built micro atomizer, at two replications.
After application, microtiter plates were incubated at 28±1° C., 80±5% RH for 2 days. Larval mortality was then visually assessed.

[3] = test system: tobacco budworm (Heliothis virescens); test: Action on tobacco budworm (Heliothis virescens), 96-well microtiter plate diet test; details: 120 h, egg and larval mortality after 5 days, read-out: mortality in comparison with untreated controls
Method: For evaluating control of tobacco budworm (Helliothis virescens) the test unit consisted of 96-well-microtiter plates containing an insect diet and 15-25 H. virescens eggs.
The compounds were formulated using a solution containing 75% v/v water and 25% v/v DMSO. Different concentrations of formulated compounds were sprayed onto the insect diet at 10 μl, using a custom built micro atomizer, at two replications.
After application, microtiter plates were incubated at about 28±1° C. and about 80±5% relative humidity for 5 days. Egg and larval mortality was then visually assessed.

[4] = test system: boll weevil (Anthonomus grandis); test: Action on boll weevil (Anthonomus grandis), 96-well microtiter plate diet test; details: 120 h, egg and larval mortality after 5 days, read-out: mortality in comparison with untreated controls
Method: For evaluating control of boll weevil (Anthonomus grandis) the test unit consisted of 96-well-microtiter plates containing an insect diet and 5-10 A. grandis eggs.
The compounds were formulated using a solution containing 75% v/v water and 25% v/v DMSO. Different concentrations of formulated compounds were sprayed onto the insect diet at 5 μl, using a custom built micro atomizer, at two replications.
After application, microtiter plates were incubated at about 25±1° C. and about 75±5% relative humidity for 5 days. Egg and larval mortality was then visually assessed.

[5] = test system: Orchid thrips (Dichromothrips corbetti); test: Action on orchid thrips (Dichromothrips corbetti), floral-immersion technique; details: adult thrips, mortality 72 hours after treatment, read-out: mortality in comparison with untreated controls
Method: Dichromothrips corbetti adults used for bioassay were obtained from a colony maintained continuously under laboratory conditions. For testing purposes, the test compound is diluted in a 1:1 mixture of acetone:water (vol:vol), plus Kinetic® HV at a rate of 0.01% v/v.
Thrips potency of each compound was evaluated by using a floral-immersion technique. All petals of individual, intact orchid flowers were dipped into treatment solution and allowed to dry in Petri dishes. Treated petals were placed into individual re-sealable plastic along with about 20 adult thrips. All test arenas were held under continuous light and a temperature of about 28° C. for duration of the assay. After 3 days, the numbers of live thrips were counted on each petal. The percent mortality was recorded 72 hours after treatment.

[6] = test system: Diamond Back Moth (Plutella xylostella); test: Action on diamond back moth (Plutella xylostella), cabbage leaf dip; details: foliar, 3rd instar larvae on dipped cabbage leaves, 72 hours after treatment, read-out: mortality in comparison with untreated controls
Method: The active compound is dissolved at the desired concentration in a mixture of 1:1 (vol:vol) distilled water:acetone. Surfactant (Kinetic® HV) is added at a rate of 0.01% (vol/vol).The test solution is prepared at the day of use.
Leaves of cabbage were dipped in test solution and air-dried. Treated leaves were placed in petri dishes lined with moist filter paper and inoculated with ten 3rd instar larvae. Mortality was recorded 72 hours after treatment. Feeding damages were also recorded using a scale of 0-100%.

[7] = test system: Silverleaf Whitefly (Bemisia argentifoli) (Adults); test: Action on silverleaf whitefly (Bemisia argentifoli) adults, sprayed cotton plants; details: Bemisia argentifolii, 72 h, 3 days after treatment, read-out: mortality in comparison with untreated controls
Method: The active compounds were formulated by a Tecan liquid handler in 100% cyclohexanone as a 10,000 ppm solution supplied in tubes. The 10,000 ppm solution was serially diluted in 100% cyclohexanone to make interim solutions. These served as stock solutions for which final dilutions were made by the Tecan in 50% acetone:50% water (v/v) into 5 or 10 ml glass vials. A nonionic surfactant (Kinetic®) was included in the solution at a volume of 0.01% (v/v). The vials were then inserted into an automated electrostatic sprayer equipped with an atomizing nozzle for application to plants/insects.
Cotton plants at the cotyledon stage (one plant per pot) were sprayed by an automated electrostatic plant sprayer equipped with an atomizing spray nozzle. The plants were dried in the sprayer fume hood and then removed from the sprayer. Each pot was placed into a plastic cup and about 10 to 12 whitefly adults (approximately 3-5 days old) were introduced. The insects were collected using an aspirator and a nontoxic Tygon® tubing connected to a barrier pipette tip. The tip, containing the collected insects, was then gently inserted into the soil containing the treated plant, allowing insects to crawl out of the tip to reach the foliage for feeding. Cups were covered with a reusable screened lid. Test plants were maintained in a growth room at about […] and about 20-40% relative humidity for 3 days, avoiding direct exposure to fluorescent light (24 hour photoperiod) to prevent trapping of heat inside the cup. Mortality was assessed 3 days after treatment, compared to untreated control plants.

CC(/C=N/N=C1\SCC(=O)N1c1ccccc1C(C)C)=C\c1cnc(Nc2ccc(OC(F)(F)F)cc2)nc1 [Compound C-3, (2Z)-3-(2-isopropylphenyl)-2-[(E)-[(E)-2-methyl-3-[2-[4-(trifluoromethoxy)anilino]pyrimidin-5-yl]prop-2-enylidene]hydrazono]thiazolidin-4-one]
≥ 75%: mortality at 300 ppm [1] | mortality at 800 ppm [2] | mortality at 800 ppm [3] | mortality at 800 ppm [4] | mortality at 500 ppm [5] | mortality at 500 ppm [6] | mortality at 300 ppm [7]

CC(C)c1ccccc1N1C(=O)CS\C1=N/N=C/C=C/c1cnc(N(C)c2ccc(OC(F)(F)F)cc2)nc1 [Compound C-5, (2Z)-3-(2-isopropylphenyl)-2-[(E)-[(E)-3-[2-[N-methyl-4-(trifluoromethoxy)anilino]pyrimidin-5-yl]prop-2-enylidene]hydrazono]thiazolidin-4-one]
≥ 75%: mortality at 300 ppm [1] | mortality at 800 ppm [2] | mortality at 800 ppm [3] | mortality at 800 ppm [4] | mortality at 500 ppm [5] | mortality at 500 ppm [6] | mortality at 300 ppm [7]

CC(/C=N/NC(=S)Nc1ccccc1C(C)C)=C\c1cnc(N(C)c2ccc(OC(F)(F)F)cc2)nc1 [Compound C-6, 1-(2-isopropylphenyl)-3-[(E)-[(E)-2-methyl-3-[2-[N-methyl-4-(trifluoromethoxy)anilino]pyrimidin-5-yl]prop-2-enylidene]amino]thiourea]
≥ 75%: mortality at 300 ppm [1] | mortality at 800 ppm [2] | mortality at 800 ppm [3] | mortality at 800 ppm [4] | mortality at 500 ppm [5] | mortality at 500 ppm [6] | mortality at 300 ppm [7]

CC(/C=N/N=C1\SCC(=O)N1c1ccccc1C(C)C)=C\c1cnc(N(C)c2ccc(OC(F)(F)F)cc2)nc1 [Compound C-7, (2Z)-3-(2-isopropylphenyl)-2-[(E)-[(E)-2-methyl-3-[2-[N-methyl-4-(trifluoromethoxy)anilino]pyrimidin-5-yl]prop-2-enylidene]hydrazono]thiazolidin-4-one]
≥ 75%: mortality at 300 ppm [1] | mortality at 800 ppm [2] | mortality at 800 ppm [3] | mortality at 800 ppm [4] | mortality at 500 ppm [5] | mortality at 500 ppm [6] | mortality at 300 ppm [7]

CC(/C=N/NC(=S)Nc1ccccc1C(C)C)=C\c1cnc(N(C)c2ccc(OC(F)(F)F)cc2)c(N(C)C)c1 [Compound C-8, 1-[(E)-[(E)-3-[5-(dimethylamino)-6-[N-methyl-4-(trifluoromethoxy)anilino]-3-pyridyl]-2-methyl-prop-2-enylidene]amino]-3-(2-isopropylphenyl)thiourea]
≥ 75%: mortality at 300 ppm [1] | mortality at 800 ppm [3] | mortality at 800 ppm [4] | mortality at 500 ppm [6] | mortality at 300 ppm [7]

CC(/C=N/N=C1\SCC(=O)N1c1ccccc1C(C)C)=C\c1cnc(N(C)c2ccc(OC(F)(F)F)cc2)c(N(C)C)c1 [Compound C-9, (2Z)-2-[(E)-[(E)-3-[5-(dimethylamino)-6-[N-methyl-4-(trifluoromethoxy)anilino]-3-pyridyl]-2-methyl-prop-2-enylidene]hydrazono]-3-(2-isopropylphenyl)thiazolidin-4-one]
≥ 75%: mortality at 300 ppm [1] | mortality at 800 ppm [2] | mortality at 800 ppm [3] | mortality at 800 ppm [4] | mortality at 500 ppm [5] | mortality at 500 ppm [6]

CC(/C=N/N=C1\SCC(=O)N1c1ccccc1C(C)C)=C\c1ccc(N(C)c2ccc(OC(F)(F)F)cc2)nc1 [Compound C-12, (2Z)-3-(2-isopropylphenyl)-2-[(E)-[(E)-2-methyl-3-[6-[N-methyl-4-(trifluoromethoxy)anilino]-3-pyridyl]prop-2-enylidene]hydrazono]thiazolidin-4-one]
≥ 75%: mortality at 300 ppm [1] | mortality at 800 ppm [2] | mortality at 800 ppm [3] | mortality at 800 ppm [4] | mortality at 500 ppm [5] | mortality at 500 ppm [6] | mortality at 300 ppm [7]

CC(/C=N/NC(=S)Nc1ccccc1C(C)C)=C\c1ccc(N(C)c2ccc(OC(F)(F)F)cc2)nc1 [Compound C-15, 1-(2-isopropylphenyl)-3-[(E)-[(E)-2-methyl-3-[6-[N-methyl-4-(trifluoromethoxy)anilino]-3-pyridyl]prop-2-enylidene]amino]thiourea]
≥ 75%: mortality at 300 ppm [1] | mortality at 800 ppm [3] | mortality at 800 ppm [4] | mortality at 500 ppm [5] | mortality at 500 ppm [6] | mortality at 300 ppm [7]

Cc1nc(N(C)c2ccc(OC(F)(F)F)cc2)ncc1CC(C)/C=N/NC(=S)Nc1ccccc1C(C)C (stereo not shown) [Compound C-22, 1-(2-isopropylphenyl)-3-[(E)-[2-methyl-3-[4-methyl-2-[N-methyl-4-(trifluoromethoxy)anilino]pyrimidin-5-yl]propylidene]amino]thiourea]
≥ 75%: mortality at 800 ppm [3] | mortality at 800 ppm [4] | mortality at 300 ppm [7]

CC(/C=N/NC(=S)Nc1ccccc1C(C)C)=C\c1ccc(N(C)c2ccc(OC(F)(F)F)cc2)nn1 [Compound C-26, 1-(2-isopropylphenyl)-3-[(E)-[(E)-2-methyl-3-[6-[N-methyl-4-(trifluoromethoxy)anilino]pyridazin-3-yl]prop-2-enylidene]amino]thiourea]
≥ 75%: mortality at 300 ppm [1] | mortality at 800 ppm [3] | mortality at 800 ppm [4] | mortality at 500 ppm [5] | mortality at 500 ppm [6] | mortality at 300 ppm [7]

CC(/C=N/N=C1\SCC(=O)N1c1ccccc1C(C)C)=C\c1ccc(N(C)c2ccc(OC(F)(F)F)cc2)nn1 [Compound C-27, (2Z)-3-(2-isopropylphenyl)-2-[(E)-[(E)-2-methyl-3-[6-[N-methyl-4-(trifluoromethoxy)anilino]pyridazin-3-yl]prop-2-enylidene]hydrazono]thiazolidin-4-one]
≥ 75%: mortality at 300 ppm [1] | mortality at 800 ppm [2] | mortality at 800 ppm [3] | mortality at 800 ppm [4] | mortality at 500 ppm [5] | mortality at 500 ppm [6]
